Test: Thermo Scientific Acclaim RSLC 120 C18, 100 × 2.1 mm, 2.2 µm, 30 °C; A: 90% water + 10% methanol + 0.01% formic acid + 5 mM ammonium formate; B: methanol + 0.01% formic acid + 5 mM ammonium formate; gradient (min/%B) 0.1/1 3/39 14/99.9 16/99.9
Conditions: stereoisomer not certain

SMILES | LC retention time
CCOC(=O)CC(SP(=O)(OC)OC)C(=O)OCC (stereo unspecified) | 7.01 min
CCCNC(C)Cc1ccccc1 (stereo unspecified) | 4.83 min
COc1cccc(C2(O)CCCCC2C[N+](C)(C)[O-])c1 (stereo unspecified) | 5.24 min
CC(=O)c1ccc2c(c1)N(CCCN(C)C)c1ccccc1S2 | 7.47 min
Cc1nccn1CC1CCc2c(c3ccccc3n2C)C1=O (stereo unspecified) | 4.98 min
CC#Cc1cc(C)nc(Nc2ccccc2)n1 | 10.2 min
CCSC(=O)N(CC)C1CCCCC1 | 11.7 min
Oc1ccc(C=Cc2cc(O)cc(O)c2)cc1 | 5.93 min
CCc1ccc(C(=O)NN(C(=O)c2cc(C)cc(C)c2)C(C)(C)C)cc1 | 10.4 min
N#CC(CCN1CCC(C(N)=O)(N2CCCCC2)CC1)(c1ccccc1)c1ccccc1 | 8.19 min
CCCc1cc(C(N)=S)ccn1 | 6.36 min
CCc1cccc(C)c1N(C(=O)CS(=O)(=O)O)C(C)COC (stereo unspecified) | 7.34 min
CNC(=O)Oc1cc(C)c(S(C)(=O)=O)c(C)c1 | 5.28 min
COc1cc(OC)nc(Oc2cccc(Oc3nc(OC)cc(OC)n3)c2C(=O)O)n1 | 8.86 min
COc1ncnc(NS(=O)(=O)c2ccc(N)cc2)c1OC | 4.75 min
COC(C)C(O)(C(=O)OCC1=CC[N+]2([O-])CCC(O)C12)C(C)C (stereo unspecified) | 3.49 min
CN1CCC23c4c5ccc(OCCN6CCOCC6)c4OC2C(O)C=CC3C1C5 (stereo unspecified) | 2.73 min
CC1(c2ccc(Oc3ccccc3)cc2)OC(=O)N(Nc2ccccc2)C1=O (stereo unspecified) | 11 min
Oc1ccc2c3c1OC1C(O)CCC4(O)C(C2)N(CC2CCC2)CCC314 (stereo unspecified) | 4.17 min

SMILES | LC retention time
CC(C)C(NC(=O)c1nn(CC2CCCCC2)c2ccccc12)C(N)=O (stereo unspecified) | 11.3 min
CNC(=O)Oc1cccc2c1OC(C)(C)O2 | 7.02 min
NS(=O)(=O)Cc1noc2ccccc12 | 4.53 min
COCC(C)N(C(=O)CS(=O)(=O)O)c1c(C)csc1C (stereo unspecified) | 6.28 min
COC(=O)C1C2CCC(CC1OC(=O)c1ccccc1)N2 (stereo unspecified) | 5.15 min
COc1ccc(OC)c(CCN)c1 | 4.43 min
COc1cccc(C(=O)NN(C(=O)c2cc(C)cc(C)c2)C(C)(C)C)c1C | 9.56 min
CCOC(=O)C(CCc1ccccc1)NC(C)C(=O)N1C(C(=O)O)CC2CCCCC21 (stereo unspecified) | 9.55 min
COC(C)(C)CCCC(C)CC=CC(C)=CC(=O)OC(C)C (stereo unspecified) | 13.6 min
O=C1OCCN1N=Cc1ccc([N+](=O)[O-])o1 | 4.19 min
Cn1cnc2c1c(=O)[nH]c(=O)n2C | 3.28 min
CCOC(=O)C(CCc1ccccc1)NC(C)C(=O)N1Cc2ccccc2CC1C(=O)O (stereo unspecified) | 9.03 min
Cc1occc1C(=O)Nc1ccccc1 | 7.59 min
CCC1OC(=O)CC(O)C(C)C(OC2OC(C)C(OC3CC(C)(O)C(O)C(C)O3)C(N(C)C)C2O)C(CC=O)CC(C)C(=O)C=CC(C)=CC1COC1OC(C)C(O)C(OC)C1OC (stereo unspecified) | 7.88 min
NC(CO)C(=O)NNCc1ccc(O)c(O)c1O (stereo unspecified) | 1.38 min
COc1ccccc1OCC(O)CO (stereo unspecified) | 5.11 min
CCCc1nn(C)c2c(=O)[nH]c(-c3cc(C(=O)CN4CCN(C)CC4)ccc3OCC)nc12 | 6.99 min
CCCCn1cc(C(=O)c2cccc3ccccc23)c2cc(O)ccc21 | 11.3 min
COc1ccc2[nH]cc(CCNC(C)=O)c2c1 | 5.36 min

SMILES | LC retention time
CN(C)CCOC(=O)C(c1ccccc1)C1(O)CCCC1 (stereo unspecified) | 6.16 min
NCCc1ccccc1 | 3.57 min
CC(C)=CC1C(C(=O)OCN2C(=O)C3=C(CCCC3)C2=O)C1(C)C (stereo unspecified) | 12.2 min
c1ccc(Nc2ccccc2)cc1 | 10.1 min
CC1(C)OCC2OC3(C(=O)O)OC(C)(C)OC3C2O1 (stereo unspecified) | 4.76 min
CCCCCCCCCc1ccc(OCCOCCO)cc1 | 13.8 min
CCc1cccc(C)c1N1C(=O)COCC1C (stereo unspecified) | 7.89 min
CNC(=O)Oc1cccc(C)c1 | 6.59 min
CN1C2CCC1CC(OC(=O)c1c[nH]c3ccccc13)C2 (stereo unspecified) | 5.09 min
CCCCCn1cc(C(=O)c2cccc3ccccc23)c2ccc(O)cc21 | 11.2 min
CCNCC(O)c1cccc(O)c1 (stereo unspecified) | 2.66 min
CCOC(=O)C1(c2ccccc2)CCN(CCC(C#N)(c2ccccc2)c2ccccc2)CC1 | 10.4 min
CC(C(O)c1ccccc1)N(C)C (stereo unspecified) | 3.73 min
Cc1cccc(C)c1NC(=O)C1CCCCN1C (stereo unspecified) | 4.66 min
NC(=O)N=C(N)N | 1.31 min
O=P(Oc1ccccc1)(Oc1ccccc1)Oc1ccccc1 | 11 min
CNC(C)C(=O)c1ccc(C)cc1 (stereo unspecified) | 4.49 min
CNC(=O)ON=C(SC)C(=O)N(C)C | 3.77 min

From the RepoRT retention time repository (doi:10.1016/j.jhazmat.2019.121712)
